SMILES strings stand for the structures.

Here are results for 19 compounds from US7799829B2, “Acyloxyalkyl carbamate prodrugs of α-amino acids, methods of synthesis and use” (XenoPort, Inc., priority 2006, dated 2010).

A short description of data set [1]: Bioavailability of α-amino acid following intracolonic administration of prodrugs in rats (intravenous α-amino acid as reference). The class given is in vivo. To be noted: for colonic bioavailability of 1-aminocyclopropanecarboxylic acid: intracolonic administration of prodrug, 1-aminocyclopropanecarboxylic acid released post absorption. How it is done:
Rats are obtained commercially and were pre-cannulated in the both the ascending colon and the jugular vein. Animals were conscious at the time of the experiment. All animals were fasted overnight and until 4 hours after dosing of an α-amino acid prodrug. An α-amino acid or the corresponding prodrug was administered as a solution (in water) directly into the colon via the cannula at a dose equivalent to about 75 mg or other appropriate dose of an α-amino acid per kg body weight. Blood samples (0.3 mL) were obtained from the jugular cannula at intervals over 8 hours and were quenched immediately by addition of sodium metabisulfite to prevent oxidation of the α-amino acid. Blood was then further quenched with methanol/perchloric acid to prevent hydrolysis of the prodrug. Blood samples were analyzed as described.
300 μL of methanol was added to 1.5 mL tubes. Rat or monkey blood (100 μL) was collected at different times into the tubes and vortexed to mix. 90 μL of blood was quenched with 300 μL methanol. 10 μL of a standard stock solution containing an α-amino acid (0.04, 0.2, 1, 5, 25, and 100 μg/mL) and 20 μL of p-chlorophenylalanine eas added to 90 μL of blood to make up a final calibration standard (0.004, 0.02, 0.1, 0.5, 2.5, and 10 μg/mL). Samples were vortexed and centrifuged at 3400 rpm for 20 min. The supernatant was analyzed by LC/MS/MS.
An API 4000 LC/MS/MS spectrometer equipped with Agilent 1100 binary pumps and a CTC HTS-PAL autosampler and an Agilent Zorbax Eclipse XBD-C8, 4.6×150 mm, 3.5 μM column was used for the analysis. The mobile phase was 0.02% heptafluorobutyric acid in water (A) and 0.02% heptafluorobutyric acid in acetonitrile (B). The flow rate was 1.0 mL/min. The gradient condition was: 5% B for 2 min, then to 10% B for 1 min. Then the mobile phase was returned to 5% B for 1.1 min. A TurboIonSpray source was used in the API 4000. The analysis was done in either negative ion mode or positive ion mode as appropriate and the MRM transition for each analyte was optimized using a standard solution. 20 μL of the samples were injected. Non-compartmental analysis was performed using WinNonlin software (v.3.1 Professional Version, Pharsight Corporation, Mountain View, Calif.) on individual animal profiles. Summary statistics on major parameter estimates was performed for Cmax (peak observed concentration following dosing), Tmax (time to maximum concentration is the time at which the peak concentration was observed), AUC(0-t) (area under the plasma concentration-time curve from time zero to last collection time, estimated using the log-linear trapezoidal method), AUC(0-∞), (area under the plasma concentration time curve from time zero to infinity, estimated using the log-linear trapezoidal method to the last collection time with extrapolation to infinity), and t1/2,z (terminal half-life).
The oral or intracolonic bioavailability (F) of an α-amino acid was determined by comparing the area under the α-amino acid concentration vs. time curve (AUC) following oral or intracolonic administration of α-amino acid or prodrug thereof with the AUC of the α-amino acid concentration vs. time curve following intravenous administration of the α-amino acid on a dose normalized basis (e.g., % Fic=AUC (following intracolonic administration of an α-amino acid prodrug)/AUC (following intravenous administration of an equivalent dose of the corresponding α-amino acid)). […] In monkeys, following, colonic administration of α-amino acid prodrug 2, the bioavailability of 1-aminocyclopropanecarboxylic acid was determined to be about 4-fold greater than after colonic administration of 1-aminocyclopropanecarboxylic acid itself (at 20 mg-eq/kg).

The melting point is the temperature, or range, at which the solid turns liquid. For `O=C(Cc1ccccc1)OCCOC(=O)NC1(C(=O)O)CC1`, the melting point lay within 142.1 to 145.6 °C.

In the case of `NC1(C(=O)O)CC1` [1-aminocyclopropanecarboxylic acid, reference compound], in data set [1] (rat, whole blood, intravenous, dosed at 20 mg-eq/kg, used as reference for bioavailability calculations, read-out: AUCinf for the intravenously administered α-amino acid), the AUC(0-inf) was 85900 ng·h/mL.

Compound `CC(OC(=O)NC1(C(=O)O)CC1)OC(=O)C(C)C` (stereo not drawn) [Compound 1, 1-(1-Isobutyryloxy-ethoxycarbonylamino)-cyclopropanecarboxylic Acid] came in with a melting point of 127 to 129.5 °C.

As to `CC(C)C(=O)OC(OC(=O)NC1(C(=O)O)CC1)C(C)C` (stereo not drawn) [Compound 2, 1-(1-Isobutyryloxy-2-methyl-propoxycarbonylamino)-cyclopropanecarboxylic Acid], the melting point was in the range of 127.4 to 129 °C. Moreover, the “colonic bioavailability of 1-aminocyclopropanecarboxylic acid” value (“colonic bioavailability” for short) in data set [1] was “substantial”. In the case of `Cc1ccccc1C(=O)OCCOC(=O)NC1(C(=O)O)CC1` [Compound 3, 1-{[(2-Methylphenylcarbonyloxy)ethoxy]carbonylamino}cyclopropanecarboxylic Acid], the “colonic bioavailability” value in data set [1] was “substantial”. As for `O=C(NC1(C(=O)O)CC1)OCCOC(=O)c1ccccc1` [Compound 4, 1-[(Phenylcarbonyloxyethoxy)carbonylamino]cyclopropanecarboxylic Acid], the melting point fell in the range of 173.8 to 175.8 °C. In data set [1], the “colonic bioavailability” value is listed as “substantial”. `CC(C)CC(=O)OC(C)OC(=O)NC1(C(=O)O)CC1` (stereo not drawn) [Compound 5, 1-[1-(3-Methyl-butyryloxy)-ethoxycarbonylamino]-cyclopropanecarboxylic Acid] returned a melting point of 116.6 to 119.1 °C. In the case of `CCCC(=O)OC(C)OC(=O)NC1(C(=O)O)CC1` (stereo not drawn) [Compound 7, 1-(1-Butyryloxy-ethoxycarbonylamino)-cyclopropanecarboxylic Acid], the melting point was in the range of 90.4 to 93.4 °C. As to `CCCCC(=O)OC(C)OC(=O)NC1(C(=O)O)CC1` (stereo not drawn) [Compound 8, 1-(1-Pentanoyloxy-ethoxycarbonylamino)-cyclopropanecarboxylic Acid], the melting point lay within 148 to 151.1 °C.

For `O=C(NC1(C(=O)O)CC1)OCCOC(=O)C1CCCCC1` [Compound 10, 1-[(Cyclohexylcarbonyloxyethoxy)carbonylamino]cyclopropanecarboxylic Acid], the melting point lay within 123.6 to 125.3 °C. `CC(C)C(OC(=O)NC1(C(=O)O)CC1)OC(=O)C1CCCCC1` (stereo not drawn) [Compound 11, 1-[(1-Cyclohexylcarbonyloxy-2-methylpropoxy)carbonylamino]cyclopropanecarboxylic Acid] gave a melting point of 156 to 158.5 °C. The “colonic bioavailability” value in data set [1] is given as “substantial”.

Consider `CC(C)C(OC(=O)NC1(C(=O)O)CC1)OC(=O)c1ccccc1` (stereo not drawn) [Compound 12, 1-[(2-Methyl-1-phenylcarbonyloxypropoxy)carbonylamino]cyclopropanecarboxylic Acid], for which the “colonic bioavailability” value in data set [1] is given as “substantial”. Turning to `CCCCCCC(=O)OCCOC(=O)NC1(C(=O)O)CC1` [Compound 13, 1-[(Heptanoyloxyethoxy)carbonylamino]cyclopropanecarboxylic Acid], the melting point fell in the range of 112.6 to 113.2 °C. `COc1ccc(C(=O)OCCOC(=O)NC2(C(=O)O)CC2)cc1OC` [Compound 14, 1-{[(3,4-Dimethoxyphenylcarbonyloxy)ethoxy]carbonylamino}cyclopropanecarboxylic Acid] returned a melting point of 171.8 to 173.6 °C. The compound `O=C(/C=C/c1ccccc1)OCCOC(=O)NC1(C(=O)O)CC1` [Compound 16, 1-{[((2E)-3-Phenylprop-2-enoyloxy)ethoxy]carbonylamino}cyclopropanecarboxylic Acid] had a melting point of 169.3 to 172.2 °C. In data set [1], the “colonic bioavailability” value is “substantial”. `O=C(CCc1ccccc1)OCCOC(=O)NC1(C(=O)O)CC1` [Compound 17, 1-{[(3-Phenylpropanoyloxy)ethoxy]carbonylamino}cyclopropanecarboxylic Acid] returned a melting point of 132.9 to 134.4 °C.

Turning to `CC(C)C(OC(=O)/C=C/c1ccccc1)OC(=O)NC1(C(=O)O)CC1` (stereo not drawn) [Compound 18, 1-{[1-((2E)-3-Phenylprop-2-enoyloxy)-2-methylpropoxy]carbonylamino}cyclopropanecarboxylic Acid], the melting point lay in the range of 147.8 to 150.2 °C. Besides, the “colonic bioavailability” value in data set [1] is given as “substantial”. On to `Cc1ccc(C(=O)OCCOC(=O)NC2(C(=O)O)CC2)cc1` [Compound 21, 1-{[(4-Methylphenylcarbonyloxy)ethoxy]carbonylamino}cyclopropanecarboxylic Acid], for which the melting point is 177.7 to 182.5 °C. Turning to `CC(C)C(=O)OC(OC(=O)NC1(C(=O)[O-])CC1)C(C)C.[Na+]` (stereo not drawn) [Compound 23, 1-{[2-Methyl-1-(2-methylpropanoyloxy)propoxy]carbonylamino}Sodium Cyclopropanoate], the “colonic bioavailability” value in data set [1] is “substantial”.
